# Species: Rattus norvegicus
# Assay: Open TG-GATES - Regimen: Daily Repeat
# Format: toxicity, organism-based, Sprague-Dawley
# Set-up: regimen Daily Repeat, gender Male, age 6 weeks
# Conditions: in vivo, iv, 0 mg/kg, route intravenous injection, dose level Control; for APTT / Bas / Eos / Fbg / Hb / Ht / Lym / MCH / MCHC / MCV / Mono / Neu / PT / Plat / RBC / Ret / WBC: tissue Blood; for KIDNEY_L / KIDNEY_R / KIDNEY_TOTAL: tissue Kidney; for LIVER: tissue Liver; for A/G / ALP / ALT / AST / BUN / CRE / Ca / Cl / DBIL / GLC / IP / K / LDH / Na / PL / RALB / TBIL / TC / TG / TP / gamma-GTP: tissue Plasma
compound,measurement,setting,value
C[C@@H]1[C@H](O)[C@@H](C)/C=C/C=C/C=C/C=C/C=C/C=C/C=C/[C@H](O[C@@H]2O[C@H](C)[C@@H](O)[C@H](N)[C@@H]2O)C[C@@H]2O[C@](O)(C[C@@H](O)C[C@@H](O)[C@H](O)CC[C@@H](O)C[C@@H](O)CC(=O)O[C@H]1C)C[C@H](O)[C@H]2C(=O)O [AMPHOTERICIN B],TERMINAL_BW,"72 h, time 3 day",239.8 g
same,APTT,"72 h, time 3 day",16.6 s
same,Bas,"72 h, time 3 day",0%
same,Eos,"72 h, time 3 day",1%
same,Fbg,"72 h, time 3 day",293.6 mg/dL
same,Hb,"72 h, time 3 day",13.7 g/dL
same,Ht,"72 h, time 3 day",40.1%
same,Lym,"72 h, time 3 day",75.8%
same,MCH,"72 h, time 3 day",20.5 pg
same,MCHC,"72 h, time 3 day",34.2%
same,MCV,"72 h, time 3 day",60 fL
same,Mono,"72 h, time 3 day",2.2%
same,Neu,"72 h, time 3 day",19.8%
same,PT,"72 h, time 3 day",12.6 s
same,Plat,"72 h, time 3 day",145.3 x10_4/uL
same,RBC,"72 h, time 3 day",668.2 x10_4/ul
same,Ret,"72 h, time 3 day",4.9%
same,WBC,"72 h, time 3 day",97.1 x10_2/uL
same,KIDNEY_L,"72 h, time 3 day",1 g
same,KIDNEY_R,"72 h, time 3 day",1 g
same,KIDNEY_TOTAL,"72 h, time 3 day",2 g
same,LIVER,"72 h, time 3 day",11.5 g
same,A/G,"72 h, time 3 day",0.8
same,ALP,"72 h, time 3 day",1512.4 IU/L
same,ALT,"72 h, time 3 day",38.6 IU/L
same,AST,"72 h, time 3 day",66.2 IU/L
same,BUN,"72 h, time 3 day",16.6 mg/dL
same,CRE,"72 h, time 3 day",0.2 mg/dL
same,Ca,"72 h, time 3 day",11 mg/dL
same,Cl,"72 h, time 3 day",105.4 meq/L
same,DBIL,"72 h, time 3 day",0.02 mg/dL
same,GLC,"72 h, time 3 day",175.4 mg/dL
same,IP,"72 h, time 3 day",7.3 mg/dL
same,K,"72 h, time 3 day",4.1 meq/L
same,LDH,"72 h, time 3 day",58.6 IU/L
same,Na,"72 h, time 3 day",142.8 meq/L
same,PL,"72 h, time 3 day",140.6 mg/dL
same,RALB,"72 h, time 3 day",2.7 g/dL
same,TBIL,"72 h, time 3 day",0.046 mg/dL
same,TC,"72 h, time 3 day",73.6 mg/dL
same,TG,"72 h, time 3 day",110.8 mg/dL
same,TP,"72 h, time 3 day",6 g/dL
same,gamma-GTP,"72 h, time 3 day",1.2 IU/L
same,TERMINAL_BW,"[…], time 7 day",275.6 g
same,TERMINAL_BW,"[…], time 14 day",324.6 g
same,TERMINAL_BW,"[…], time 28 day",391.3 g
same,APTT,"[…], time 7 day",17.5 s
same,Bas,"[…], time 7 day",0%
same,Eos,"[…], time 7 day",1%
same,Fbg,"[…], time 7 day",264.4 mg/dL
same,Hb,"[…], time 7 day",13.4 g/dL
same,Ht,"[…], time 7 day",38.9%
same,Lym,"[…], time 7 day",79.8%
same,MCH,"[…], time 7 day",20.7 pg
same,MCHC,"[…], time 7 day",34.4%
same,MCV,"[…], time 7 day",60 fL
same,Mono,"[…], time 7 day",2.2%
same,Neu,"[…], time 7 day",16%
same,PT,"[…], time 7 day",12.3 s
same,Plat,"[…], time 7 day",122.6 x10_4/uL
same,RBC,"[…], time 7 day",648.2 x10_4/ul
same,Ret,"[…], time 7 day",4.7%
same,WBC,"[…], time 7 day",102.1 x10_2/uL
same,APTT,"[…], time 14 day",16.3 s
same,Bas,"[…], time 14 day",1%
same,Eos,"[…], time 14 day",1%
same,Fbg,"[…], time 14 day",280.6 mg/dL
same,Hb,"[…], time 14 day",14.6 g/dL
same,Ht,"[…], time 14 day",41.3%
same,Lym,"[…], time 14 day",80%
same,MCH,"[…], time 14 day",20.5 pg
same,MCHC,"[…], time 14 day",35.4%
same,MCV,"[…], time 14 day",57.8 fL
same,Mono,"[…], time 14 day",2.4%
same,Neu,"[…], time 14 day",15.6%
same,PT,"[…], time 14 day",12.3 s
same,Plat,"[…], time 14 day",129.9 x10_4/uL
same,RBC,"[…], time 14 day",716.4 x10_4/ul
same,Ret,"[…], time 14 day",4%
same,WBC,"[…], time 14 day",134.6 x10_2/uL
same,APTT,"[…], time 28 day",19.2 s
same,Bas,"[…], time 28 day",0.4%
same,Eos,"[…], time 28 day",1%
same,Fbg,"[…], time 28 day",260.4 mg/dL
same,Hb,"[…], time 28 day",15.3 g/dL
same,Ht,"[…], time 28 day",43.7%
same,Lym,"[…], time 28 day",77%
same,MCH,"[…], time 28 day",18.9 pg
same,MCHC,"[…], time 28 day",35%
same,MCV,"[…], time 28 day",54 fL
same,Mono,"[…], time 28 day",1.4%
same,Neu,"[…], time 28 day",19%
same,PT,"[…], time 28 day",13 s
same,Plat,"[…], time 28 day",114.3 x10_4/uL
same,RBC,"[…], time 28 day",808.4 x10_4/ul
same,Ret,"[…], time 28 day",2.2%
same,WBC,"[…], time 28 day",119.7 x10_2/uL
same,KIDNEY_L,"[…], time 7 day",1.1 g
same,KIDNEY_R,"[…], time 7 day",1.1 g
same,KIDNEY_TOTAL,"[…], time 7 day",2.2 g
same,KIDNEY_L,"[…], time 14 day",1.3 g
same,KIDNEY_R,"[…], time 14 day",1.3 g
same,KIDNEY_TOTAL,"[…], time 14 day",2.6 g
same,KIDNEY_L,"[…], time 28 day",1.4 g
same,KIDNEY_R,"[…], time 28 day",1.3 g
same,KIDNEY_TOTAL,"[…], time 28 day",2.8 g
same,LIVER,"[…], time 7 day",12 g
same,LIVER,"[…], time 14 day",14 g
same,LIVER,"[…], time 28 day",15.5 g
same,A/G,"[…], time 7 day",0.8
same,ALP,"[…], time 7 day",1920.8 IU/L
same,ALT,"[…], time 7 day",35 IU/L
same,AST,"[…], time 7 day",69 IU/L
same,BUN,"[…], time 7 day",17 mg/dL
same,CRE,"[…], time 7 day",0.2 mg/dL
same,Ca,"[…], time 7 day",11.3 mg/dL
same,Cl,"[…], time 7 day",105.6 meq/L
same,DBIL,"[…], time 7 day",0.02 mg/dL
same,GLC,"[…], time 7 day",179.8 mg/dL
same,IP,"[…], time 7 day",7 mg/dL
same,K,"[…], time 7 day",4.3 meq/L
same,LDH,"[…], time 7 day",63 IU/L
same,Na,"[…], time 7 day",143.8 meq/L
same,PL,"[…], time 7 day",136.2 mg/dL
same,RALB,"[…], time 7 day",2.7 g/dL
same,TBIL,"[…], time 7 day",0.05 mg/dL
same,TC,"[…], time 7 day",69.8 mg/dL
same,TG,"[…], time 7 day",101.6 mg/dL
same,TP,"[…], time 7 day",5.9 g/dL
same,gamma-GTP,"[…], time 7 day",1 IU/L
same,A/G,"[…], time 14 day",0.8
same,ALP,"[…], time 14 day",1407.4 IU/L
same,ALT,"[…], time 14 day",40.8 IU/L
same,AST,"[…], time 14 day",66 IU/L
same,BUN,"[…], time 14 day",18 mg/dL
same,CRE,"[…], time 14 day",0.2 mg/dL
same,Ca,"[…], time 14 day",10.9 mg/dL
same,Cl,"[…], time 14 day",105 meq/L
same,DBIL,"[…], time 14 day",0.014 mg/dL
same,GLC,"[…], time 14 day",185.4 mg/dL
same,IP,"[…], time 14 day",7.4 mg/dL
same,K,"[…], time 14 day",4.2 meq/L
same,LDH,"[…], time 14 day",61 IU/L
same,Na,"[…], time 14 day",142.8 meq/L
same,PL,"[…], time 14 day",144.6 mg/dL
same,RALB,"[…], time 14 day",2.6 g/dL
same,TBIL,"[…], time 14 day",0.048 mg/dL
same,TC,"[…], time 14 day",76.2 mg/dL
same,TG,"[…], time 14 day",117 mg/dL
same,TP,"[…], time 14 day",6 g/dL
same,gamma-GTP,"[…], time 14 day",1 IU/L
same,A/G,"[…], time 28 day",0.7
same,ALP,"[…], time 28 day",1095.6 IU/L
same,ALT,"[…], time 28 day",36.8 IU/L
same,AST,"[…], time 28 day",62.2 IU/L
same,BUN,"[…], time 28 day",17.2 mg/dL
same,CRE,"[…], time 28 day",0.2 mg/dL
same,Ca,"[…], time 28 day",11.1 mg/dL
same,Cl,"[…], time 28 day",105 meq/L
same,DBIL,"[…], time 28 day",0.018 mg/dL
same,GLC,"[…], time 28 day",186 mg/dL
same,IP,"[…], time 28 day",6.2 mg/dL
same,K,"[…], time 28 day",3.8 meq/L
same,LDH,"[…], time 28 day",54.2 IU/L
same,Na,"[…], time 28 day",144.4 meq/L
same,PL,"[…], time 28 day",148.6 mg/dL
same,RALB,"[…], time 28 day",2.6 g/dL
same,TBIL,"[…], time 28 day",0.06 mg/dL
same,TC,"[…], time 28 day",73.8 mg/dL
same,TG,"[…], time 28 day",157 mg/dL
same,TP,"[…], time 28 day",6.4 g/dL
same,gamma-GTP,"[…], time 28 day",1.2 IU/L

# — ChEMBL document CHEMBL3885861, “Open TG-GATES”
